Test results taken from publication PMC3914206.

Legend:
panel of 442 kinases [1] = molecular target: T1, panel of 442 kinases (Homo sapiens, UniProt P17948); type: binding; details: Compound Concentration 10 µM
T1 construct: purchased KINOMEscan
Excerpt: (§1) We assessed the selectivity of members of this scaffold using the KINOMEscan methodology across a near comprehensive panel of 442 kinases [[18,27]].

panel of 442 kinases [2] = molecular target: T2, panel of 442 kinases (Homo sapiens, UniProt O43283); type: binding; details: Compound Concentration 10 µM
T2 construct: purchased KINOMEscan
T2 sequence (O43283 1-966): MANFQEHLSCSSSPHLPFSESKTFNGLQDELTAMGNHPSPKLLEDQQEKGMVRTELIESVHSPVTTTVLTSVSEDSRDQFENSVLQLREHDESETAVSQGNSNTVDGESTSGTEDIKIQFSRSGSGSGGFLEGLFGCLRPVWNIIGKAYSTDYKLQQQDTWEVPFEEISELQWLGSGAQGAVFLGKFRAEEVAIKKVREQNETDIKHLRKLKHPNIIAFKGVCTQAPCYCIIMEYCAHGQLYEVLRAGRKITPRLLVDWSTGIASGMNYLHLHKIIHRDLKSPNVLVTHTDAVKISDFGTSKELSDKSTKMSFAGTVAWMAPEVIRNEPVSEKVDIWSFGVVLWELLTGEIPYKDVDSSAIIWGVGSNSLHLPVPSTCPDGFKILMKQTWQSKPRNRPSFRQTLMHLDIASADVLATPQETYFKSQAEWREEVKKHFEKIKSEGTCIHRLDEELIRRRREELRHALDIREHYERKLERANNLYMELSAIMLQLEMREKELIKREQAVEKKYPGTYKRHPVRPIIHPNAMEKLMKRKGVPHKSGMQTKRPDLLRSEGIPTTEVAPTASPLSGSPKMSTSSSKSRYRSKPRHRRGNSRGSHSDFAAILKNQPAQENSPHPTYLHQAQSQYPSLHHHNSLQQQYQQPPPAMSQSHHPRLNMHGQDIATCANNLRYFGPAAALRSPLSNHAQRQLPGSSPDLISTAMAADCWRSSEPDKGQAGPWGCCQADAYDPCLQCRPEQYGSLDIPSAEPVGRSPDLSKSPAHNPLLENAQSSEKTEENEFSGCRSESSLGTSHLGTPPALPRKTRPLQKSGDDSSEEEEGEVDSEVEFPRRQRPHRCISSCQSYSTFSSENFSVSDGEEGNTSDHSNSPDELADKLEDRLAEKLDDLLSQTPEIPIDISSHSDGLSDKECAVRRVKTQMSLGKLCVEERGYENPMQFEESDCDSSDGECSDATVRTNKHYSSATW
Excerpt: as §1

T1 sequence (P17948 27-1338): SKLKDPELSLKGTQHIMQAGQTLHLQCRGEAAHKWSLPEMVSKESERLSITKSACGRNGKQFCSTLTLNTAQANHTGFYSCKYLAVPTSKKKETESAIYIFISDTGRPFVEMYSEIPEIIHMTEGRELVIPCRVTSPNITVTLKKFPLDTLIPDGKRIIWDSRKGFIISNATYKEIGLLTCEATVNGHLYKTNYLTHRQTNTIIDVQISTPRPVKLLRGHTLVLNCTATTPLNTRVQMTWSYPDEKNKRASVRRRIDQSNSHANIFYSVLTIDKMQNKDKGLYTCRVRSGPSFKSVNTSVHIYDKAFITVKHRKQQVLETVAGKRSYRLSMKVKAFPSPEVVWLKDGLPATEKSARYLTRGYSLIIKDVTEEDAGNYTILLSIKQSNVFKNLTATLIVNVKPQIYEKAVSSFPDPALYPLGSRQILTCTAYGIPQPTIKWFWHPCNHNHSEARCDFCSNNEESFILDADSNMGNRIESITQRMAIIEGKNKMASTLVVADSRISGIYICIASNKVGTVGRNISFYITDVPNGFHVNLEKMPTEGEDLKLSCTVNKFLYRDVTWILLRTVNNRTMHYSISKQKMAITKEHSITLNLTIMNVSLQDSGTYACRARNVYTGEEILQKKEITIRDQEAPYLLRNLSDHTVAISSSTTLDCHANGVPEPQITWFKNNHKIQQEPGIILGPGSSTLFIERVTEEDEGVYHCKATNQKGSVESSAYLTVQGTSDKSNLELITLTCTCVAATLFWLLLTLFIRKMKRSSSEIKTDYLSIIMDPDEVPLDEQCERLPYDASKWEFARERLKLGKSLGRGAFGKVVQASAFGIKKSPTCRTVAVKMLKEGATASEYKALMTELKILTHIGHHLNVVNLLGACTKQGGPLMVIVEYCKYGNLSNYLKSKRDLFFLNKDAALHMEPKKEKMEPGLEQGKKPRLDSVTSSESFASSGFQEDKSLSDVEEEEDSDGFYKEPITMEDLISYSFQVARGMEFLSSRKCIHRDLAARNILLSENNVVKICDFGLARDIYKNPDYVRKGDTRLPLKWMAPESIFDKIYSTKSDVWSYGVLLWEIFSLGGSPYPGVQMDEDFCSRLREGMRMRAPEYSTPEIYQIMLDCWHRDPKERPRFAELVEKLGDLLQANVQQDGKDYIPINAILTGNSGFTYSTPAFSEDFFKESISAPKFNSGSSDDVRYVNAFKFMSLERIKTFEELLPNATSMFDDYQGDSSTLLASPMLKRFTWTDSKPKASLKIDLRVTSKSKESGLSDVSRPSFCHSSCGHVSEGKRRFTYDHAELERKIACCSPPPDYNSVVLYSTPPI

For `CCOc1cc(C(=O)N2CCC(N3CCN(C)CC3)CC2)ccc1Nc1ncc2c(n1)N(C1CCCC1)c1ccccc1C(=O)N2C` [Compound 26], the “KINOMEscan: FLT1” value (panel of 442 kinases [1]) was 100 and the “KINOMEscan: LZK” value (panel of 442 kinases [2]) was 92.

For `COc1cc(C(=O)N2CCC(N3CCN(C)CC3)CC2)ccc1Nc1ncc2c(n1)N(C1CCCC1)c1ccccc1C(=O)N2C` [Compound 25, 11-cyclopentyl-2-((2-methoxy-4-(4-(4-methylpiperazin-1-yl)piperidine-1-carbonyl)phenyl)amino)-5-methyl-5H-benzo[e]pyrimido[5,4-b][1,4]diazepin-6(11H)-one], the “KINOMEscan: FLT1” value (panel of 442 kinases [1]) was 100 and the “KINOMEscan: LZK” value (panel of 442 kinases [2]) was 100.

With `COc1cc(C(=O)N2CCC(N3CCN(C)CC3)CC2)ccc1Nc1ncc2c(n1)N(C)c1ccccc1C(=O)N2C` [15 (LRRK2-IN-1)] the “KINOMEscan: FLT1” value (panel of 442 kinases [1]) was 100 and the “KINOMEscan: LZK” value (panel of 442 kinases [2]) was 100.
